Results taken from patent publication US9017935B2, “HIV-1 latency model for high throughput screening” (priority 2005, dated 2015).

Columns and labels:
latent HIV-1 proviruses = settings: background, literature; cited from earlier work
[1] = recently reported (ref. 43); cited from earlier work
[2] = tested on: latent HIV-1 vector provirus in 24ST1NLESG cells; assay: Quantitative real-time RT-PCR of HIV-1 mRNA, 24ST1NLESG cells; type: cell-based; settings: TNF-α 50 ng/ml, day 4 post-stimulation, normalized to β-actin
Method: FIG. 6. Real-time RT-PCR for relative quantification of HIV-1 mRNA levels in 24ST1NLESG cells before and after activation from latency. Quantitative real-time RT-PCR was performed with RNA isolated from 24ST1NLESG cells (10^6/ml) following one and four days after stimulation with TNF-α (50 ng/ml). cDNA was synthesized with polyT oligo, and the reactions were completed with primers to viral (Rev2) and cellular (β-actin) genes with SYBR green detection. The ‘Delta-delta method’ (PE Applied Biosystems) was used to compare the relative expression results (ΔCT) between the values obtained from the RNA samples from stimulated cells to the values obtained from RNA isolated from untreated cells. The results were normalized to the expression of β-actin. […]
The consistent reactivation of viral genes as evidenced by the pattern of expression of the three markers assayed correlated with an increase in the relative levels of total viral mRNA. The relative amount of total HIV-1 mRNA was determined by quantitative real-time PCR using primers to the second exon of rev (Rev2). […] Therefore, only the level of mature polyadenylated RNA was detected.
The relative ratio of viral RNA after stimulation of 24ST1NLESG latent cells was determined as described in the Examples using the relative RNA results obtained for the unstimulated 24ST1NLESG cells as a control. β-actin was used as a reference gene. […]

[3] = tested on: latent HIV-1 vector provirus in NLE-S-G infected SupT1 cells; assay: SEAP assay, mass population of NLE-S-G infected SupT1 cells; type: cell-based; settings: mass population three weeks post-infection, TNF-α 100 ng/ml, four days post activation
Description: The infected mass population of cells was next tested for its ability to establish a latent infection. The infected mass population of SupT1 cells was maintained in culture for one month. […] This was also reflected in the reduction of SEAP expression by the third week (FIG. 2C). It was shown in previous studies that tumor necrosis factor (TNF)-α could activate HIV-1 virus production from latently infected cell lines (30).
1×10^6 or 1×10^5 cells from the clonal cell lines or mass populations of infected cells were resuspended in RPMI media with or without the activator. At the indicated day post plating, samples were taken to determine the activity of SEAP. The assay was performed using a SEAP Detection kit (BD Biosciences, Palo Alto, Calif.) according to the manufacturer's protocol. The relative light units (RLU) were measured with a tube luminometer (Turner Designs 20/20) or a MLX Microtiter Plate Luminometer (DYNEX Technologies).

[4] = tested on: latent HIV-1 vector provirus in 29ST1NLESG cells; assay: SEAP assay for late gene expression, 29ST1NLESG cells; type: cell-based; settings: TNF-α 50 ng/ml, day 2 post treatment
Method: (§1) FIG. 3. Reactivation of early and late viral gene expression in three clonal cell lines by TNF-α. (A) 19ST1NLESG, 24ST1NLESG, and 29ST1NLESG cells (10^6/ml) were exposed to TNF-α (50 ng/ml) and four days after gfp expressing cells were analyzed by flow cytometry. The left panels show the histograms of unstimulated cells, and the right panels represent the histogram analysis of TNF-α (50 ng/ml) stimulated cells. Numbers show the percentages of gfp positive cells. (B) SEAP in the cultured media of untreated and TNF-α (50 ng/ml) stimulated 19ST1NLESG, 24ST1NLESG, 29ST1NLESG cells two and four days post plating. (C) Fold induction of SEAP expression in 19ST1NLESG, 24ST1NLESG, and 29ST1NLESG cells (10^6/m1) after stimulation with TNF-α (50 ng/ml). Readings were taken on the second and fourth days post activation. […]
(§2) In order to provide a well characterized system to identify molecules that can activate latent virus, SupT1 cell clones harboring latent vector provirus were isolated. […] Even at 0.1 ng/ml of TNF-α induction could be detected yielding SEAP activity 4-fold above background (FIG. 4).
(§3) 1×10^6 or 1×10^5 cells from the clonal cell lines or mass populations of infected cells were resuspended in RPMI media with or without the activator. […] The relative light units (RLU) were measured with a tube luminometer (Turner Designs 20/20) or a MLX Microtiter Plate Luminometer (DYNEX Technologies).

[5] = tested on: latent HIV-1 vector provirus in 19ST1NLESG cells; assay: SEAP assay for late gene expression, 19ST1NLESG cells; type: cell-based; settings: TNF-α 50 ng/ml, day 2 post treatment
Method: as §1, §2, §3

[6] = tested on: latent HIV-1 vector provirus in NLE-S-G infected SupT1 cells; assay: Flow cytometry of GFP positive cells, mass population of NLE-S-G infected SupT1 cells; type: cell-based; settings: mass population three weeks post-infection (2% before treatment), TNF-α 100 ng/ml, analyzed forty-eight hours after exposure
Description: FIG. 2. Infection of SupT1 cells by NLE^-S-G vector virus. (A) The upper panels depict uninfected SupT1 cells. The lower panels show SupT1 cells that have been infected with NLE-S-G virus. The phase contrast (left panels) and fluorescence microscopy (right panels) images were captured five days post-infection. (B) Flow cytometric analysis of SupT1 cells either mock infected or infected with NLE^−S-G analyzed at day five post-infection or three weeks post-infection. […] Three weeks post infection mass population of unsorted NLE^−S-G infected SupT1 cells (10^6 cells/ml) were stimulated with TNF-α (100 ng/ml). Cells were analyzed forty-eight hours after exposure. Numbers represent the percentages of gfp positive cells. (C) SEAP activity in the conditioned media from NLE^−S-G infected unsorted SupT1 cells (10^6 cells/ml) four days, three weeks and one month post-infection. Three weeks post-infection, a sample (10^6 cells/ml) of a mass population of NLE^−S-G infected SupT1 cells was treated with TNF-α (100 ng/ml) and analyzed four days post activation. RLU, relative light units.
The infected mass population of cells was next tested for its ability to establish a latent infection. The infected mass population of SupT1 cells was maintained in culture for one month. […] This was also reflected in the reduction of SEAP expression by the third week (FIG. 2C). […]

[7] = tested on: latent HIV-1 vector provirus in 24ST1NLESG cells; assay: SEAP assay for late gene expression, 24ST1NLESG cells; type: cell-based; settings: for fold induction in SEAP activity: TNF-α 50 ng/ml
Method: FIG. 3. Reactivation of early and late viral gene expression in three clonal cell lines by TNF-α. (A) 19ST1NLESG, 24ST1NLESG, and 29ST1NLESG cells (10^6/ml) were exposed to TNF-α (50 ng/ml) and four days after gfp expressing cells were analyzed by flow cytometry. The left panels show the histograms of unstimulated cells, and the right panels represent the histogram analysis of TNF-α (50 ng/ml) stimulated cells. Numbers show the percentages of gfp positive cells. (B) SEAP in the cultured media of untreated and TNF-α (50 ng/ml) stimulated 19ST1NLESG, 24ST1NLESG, 29ST1NLESG cells two and four days post plating. (C) Fold induction of SEAP expression in 19ST1NLESG, 24ST1NLESG, and 29ST1NLESG cells (10^6/m1) after stimulation with TNF-α (50 ng/ml). Readings were taken on the second and fourth days post activation. Results shown are the means and standard deviations of one of three representative experiments.
FIG. 4. SEAP activation in 24ST1NLESG cells at different concentrations of TNF-α. SEAP synthesis by 24ST1NLESG cells (10^6/ml) four days post-activation with various concentrations (0.1 to 100 ng/ml) of TNF-α. The numbers above the bars show the fold induction of enzymatic activity calculated as ratio between the average value of RLU per sample induced cells compared to the mean RLU value of uninduced cells. RLU, relative light units. Results shown are the means and standard deviations of one of three representative experiments.
as §2, §3

[8] = tested on: latent HIV-1 vector provirus in 24ST1NLESG cells; assay: HIV-1 p24gag ELISA, 24ST1NLESG cells; type: cell-based; settings: TNF-α 50 ng/ml
Method: FIG. 5. HIV-1 Gag p24 protein production in 24ST1NLESG cells. HIV-1 Gag p24 protein was detected in the cultured media of untreated and TNF-α (50ng/ml) treated 24ST1NLESG cells (10^6/ml) two and four days post-plating. Results shown are the means and standard deviations of one or two representative experiments.
To further characterize the 24ST1NLESG cell line, p24^gag expression was monitored using the ELISA after treatment with TNF-α (50 ng/ml) (FIG. 5).
HIV gag transfer assay. 1×10^6 SupT1 infected cells (latent mass population and clonal cell lines) were plated followed by harvesting supernatant one week later. Samples were collected both from TNF-α activated and untreated cells. They were passed through a 0.45-μm pore-size filter and used to inoculate […] 10^6 parental SupT1 cells for 24 h. The cells were washed twice with PBS and resuspended in fresh media. The same process was repeated once again with conditioned media from the targeted parental cells, and a new batch of SupT1 cells was treated. Passing the conditioned media over two sets of virgin SupT1 cells helps to assure that the carryover of gag protein in the samples will be eliminated and only the de novo synthesized protein, if present, will be assessed. […] Samples were considered virus free when the p24^gag concentration was below the detection threshold, which for this assay, was determined to be 10 pg/ml.

| Molecule | activation of latent virus (latent HIV-1 proviruses) | cytotoxicity [1] | increase in relative ratio of viral RNA [2] | increase in SEAP activity [3] [fold] | fold induction in SEAP activity [4] [fold] | fold induction in SEAP activity [5] | number of GFP-positive cells after treatment [6] [%] | SEAP activity above background ([7]; 0.1 ng/ml TNF-α, four days post-activation) [fold] | fold induction in SEAP activity ([7]; day 2 post treatment) [fold] | fold induction in SEAP activity ([7]; day 4) | concentration of p24gag above background ([8]; 2 days post-activation) [fold] | concentration of p24gag above background ([8]; 4 days post-activation) [fold] |
| --- | --- | --- | --- | --- | --- | --- | --- | --- | --- | --- | --- | --- |
| CCCCCCCCCCCCCC(=O)O[C@@H]1[C@@H](C)[C@@]2(O)[C@@H](C=C(CO)C[C@]3(O)C(=O)C(C)=C[C@@H]23)[C@@H]2C(C)(C)[C@]12OC(C)=O [PMA, phorbol 12-myristate 13-acetate] | could stimulate latent virus |  |  |  |  |  |  |  |  |  |  |  |
| CC(=O)O[C@@]12C[C@@H](C)[C@@]3(O)[C@@H](C=C(CO)C[C@]4(O)C(=O)C(C)=C[C@@H]34)[C@@H]1C2(C)C [prostratin] | able to activate latent virus | significant cytotoxicity |  |  |  |  |  |  |  |  |  |  |
| TNF-α |  |  | at least 100 fold | 400 | ~150 | approximately 50 fold | 19 | 4 | ~400 | approximately 600 fold | 50 | 100 |
